Drawing on PubChem BioAssay (NCI), this text covers GI50 and TGI for 14 compounds.

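Tested at 5 concentrations; 48 h exposure; 96-well plates; endpoints linearly interpolated, else capped at highest concentration. The concentration for 50% growth inhibition is given as GI50. At the TGI there is no net growth.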

Among the test systems are CAKI-1 renal; COLO 205 colon; K-562 leukemia; M14 melanoma; MDA-MB-231 breast; NCI/ADR-RES ovarian; OVCAR-8 ovarian; PC-3 prostate; SNB-75 CNS; NCI-H226 lung.
What all share (assay): NCI tumour cell line growth inhibition, 48 h

Consider `COc1cc2c(cc1OCCCCCOc1cc3c(cc1OC)C(=O)N1CC(F)C[C@H]1C=N3)N=C[C@@H]1CC(F)CN1C2=O` (stereo not given in full), for which the GI50 in the test with CAKI-1 renal was < 0.01 µM; in the test on COLO 205 colon, 0.191 µM; with K-562 leukemia, 0.0325 µM; with M14 melanoma, 0.0275 µM; in the test with MDA-MB-231 breast, 0.245 µM; in the test with NCI/ADR-RES ovarian, 0.553 µM. Also, the GI50 is 0.138 µM in the test on OVCAR-8 ovarian, 0.295 µM with PC-3 prostate and 0.0488 µM with SNB-75 CNS. For the same compound, the TGI with CAKI-1 renal turned out to be 0.411 µM; in the test with COLO 205 colon, 0.465 µM; in the test with K-562 leukemia, 1.94 µM; in the test on M14 melanoma, 0.272 µM; with MDA-MB-231 breast it was 0.55 µM; in the test on NCI/ADR-RES ovarian, 9.87 µM. Further, the TGI in the test on OVCAR-8 ovarian is 2.06 µM; with PC-3 prostate it was 1.49 µM; in the test on SNB-75 CNS, > 100 µM.
With `COC(c1cccc(C(O)(C(F)(F)F)C(F)(F)F)c1)(C(F)(F)F)C(F)(F)F`, the TGI amounted to 39.7 µM with CAKI-1 renal; 33.5 µM in the test on COLO 205 colon; 34 µM with M14 melanoma; 37.8 µM with NCI-H226 lung; 45.4 µM in the test on OVCAR-8 ovarian; 32.1 µM in the test on SNB-75 CNS.
As for `COc1cc(-c2nc3sccn3c2-c2ccnc(NCCNS(=O)(=O)c3ccc(Cl)cc3)n2)ccc1F`, the GI50 in the test on CAKI-1 renal was 4.89 µM; in the test with COLO 205 colon it was 3.48 µM; in the test on K-562 leukemia it was 2.76 µM; in the test with M14 melanoma, 3.62 µM; in the test on NCI-H226 lung, 2.37 µM; in the test with NCI/ADR-RES ovarian, 2.89 µM. Further, the GI50 was 2.71 µM in the test on OVCAR-8 ovarian, 0.577 µM in the test on PC-3 prostate and 4.48 µM with SNB-75 CNS. The TGI with CAKI-1 renal is > 100 µM; in the test on COLO 205 colon, > 100 µM; with K-562 leukemia, > 100 µM; in the test with M14 melanoma it was > 100 µM; in the test on NCI-H226 lung it was 10.5 µM; with NCI/ADR-RES ovarian, > 100 µM. The TGI in the test with OVCAR-8 ovarian, with PC-3 prostate and with SNB-75 CNS was > 100 µM throughout.
Consider `O=C(Nc1ccc(F)cc1)Nc1ccccc1CNc1nc(Nc2ccc(OCCN3CCCC3)cc2)ncc1Cl`, for which the GI50 with CAKI-1 renal is 2.87 µM; in the test with K-562 leukemia it was 1.2 µM; in the test on M14 melanoma, 0.946 µM; in the test with MDA-MB-231 breast, 0.871 µM; in the test on NCI/ADR-RES ovarian it was 2.59 µM; in the test with OVCAR-8 ovarian, 1.83 µM. Besides, the GI50 is 1.67 µM in the test with PC-3 prostate and 0.677 µM in the test with SNB-75 CNS. Further, the TGI with CAKI-1 renal was determined as 9.25 µM; in the test with K-562 leukemia it was 3.06 µM; with M14 melanoma it was 2 µM; in the test with MDA-MB-231 breast, 1.77 µM; with NCI/ADR-RES ovarian, 10.4 µM; in the test with OVCAR-8 ovarian, 12.2 µM. Besides, the results for the TGI in the test with PC-3 prostate and in the test on SNB-75 CNS were 6.19 µM and 1.35 µM, respectively.
Regarding `O=C(C=Nc1ccccc1C(=O)[O-])c1cccs1.O=C(C=Nc1ccccc1C(=O)[O-])c1cccs1.[Co+2]`, the TGI in the test with CAKI-1 renal, in the test with COLO 205 colon, with K-562 leukemia, in the test with M14 melanoma and in the test with OVCAR-8 ovarian was > 100 µM throughout.
`O=C(O)C1=CCCc2ccc3ccccc3c21`: the TGI with COLO 205 colon, with K-562 leukemia, in the test on M14 melanoma, in the test with NCI-H226 lung, with OVCAR-8 ovarian and with SNB-75 CNS was > 100 µM in each case.
Turning to `CCN(CC)CCCn1cnc2ncccc2c1=O`, the TGI with CAKI-1 renal, in the test with COLO 205 colon, in the test on K-562 leukemia, in the test on M14 melanoma, with NCI-H226 lung and in the test on OVCAR-8 ovarian was > 100 µM throughout. Besides, the TGI in the test with SNB-75 CNS is > 100 µM.
Turning to `c1ccc2c(c1)sc1c3cnccc3ccc21`, the TGI with CAKI-1 renal, with COLO 205 colon, in the test on K-562 leukemia, in the test with M14 melanoma, with MDA-MB-231 breast and in the test with NCI-H226 lung was > 100 µM throughout. Also, the TGI in the test with NCI/ADR-RES ovarian and in the test on SNB-75 CNS was > 100 µM in each case.
Consider `CC(=O)Oc1cc(C)c2c(c1OC(C)=O)CC1(O2)[C@@H](C)CCC2[C@@]3(C)CC[C@H](OC(C)=O)C(C)(C)C3CC[C@]21C` (stereo not given in full), for which the TGI in the test with CAKI-1 renal was 4.3 µM; in the test with COLO 205 colon, 3.15 µM; with M14 melanoma, 18.7 µM; with NCI-H226 lung, 25.6 µM; in the test on OVCAR-8 ovarian, 13.7 µM; in the test with SNB-75 CNS it was 14.9 µM.
In the case of `C/C(=N\NC(N)=S)c1cc(C)c(C)cc1C`, the TGI in the test on CAKI-1 renal, in the test with COLO 205 colon, with K-562 leukemia, in the test on M14 melanoma, in the test with NCI-H226 lung and in the test on OVCAR-8 ovarian was > 100 µM throughout. Also, the TGI in the test on SNB-75 CNS was 85.3 µM.
`O=C(CCC(=O)Nc1cccc(Cl)c1)CC(=O)c1ccc(F)cc1`: the TGI with CAKI-1 renal, with COLO 205 colon, with K-562 leukemia, in the test on M14 melanoma, in the test on NCI-H226 lung and with OVCAR-8 ovarian was > 100 µM throughout. In addition, the TGI with SNB-75 CNS was > 100 µM.
Consider `[Cl][Sn]([Cl])([c]1ccccc1)[c]1ccccc1`, for which the GI50 was 2.29 µM in the test with CAKI-1 renal; 2.69 µM in the test with K-562 leukemia; 15.3 µM in the test with M14 melanoma; 17.7 µM in the test on NCI-H226 lung; 14.4 µM with OVCAR-8 ovarian; 10.8 µM in the test with SNB-75 CNS. Besides, the TGI came out at 6.52 µM in the test with CAKI-1 renal; 12.3 µM with K-562 leukemia; 29 µM in the test on M14 melanoma; 32.2 µM in the test on NCI-H226 lung; 27.8 µM with OVCAR-8 ovarian; 22.9 µM with SNB-75 CNS.
With `CSc1cccc(-n2c3nc(=O)n(C)c(=O)c-3nc3ccccc32)c1`, the TGI with CAKI-1 renal was found to be 19.7 µM; in the test on COLO 205 colon, 11 µM; with K-562 leukemia, 32.5 µM; in the test with M14 melanoma, 9.79 µM; with NCI-H226 lung, 28.9 µM; in the test on OVCAR-8 ovarian it was 57.6 µM. In the test with SNB-75 CNS, this compound yielded a TGI of 28.6 µM.
Take `CCCCCCCC(=O)NCC(O)CNC(=O)CCCCCCC`: the TGI in the test on CAKI-1 renal, in the test with COLO 205 colon, with K-562 leukemia, with M14 melanoma, in the test with NCI-H226 lung and in the test with OVCAR-8 ovarian was > 100 µM throughout. For the same compound, the TGI in the test with SNB-75 CNS is > 100 µM.
